# Data reported in US20150125457A1, “BONE REPAIR PROMOTER” (DAIICHI SANKYO COMPANY, LIMITED, priority 2012, published 2015).
# Bridges are numbered along the chain shown (N, C = ends). Where no end group is shown, it is not given here.
# Experiments:
# NPR-B = molecular target: T1, NPR-B (Homo sapiens, UniProt P20594); details: literature reports (Furuya et al. 1992; US 2010-305031); cited from earlier work
# T1 sequence (P20594 23-1047): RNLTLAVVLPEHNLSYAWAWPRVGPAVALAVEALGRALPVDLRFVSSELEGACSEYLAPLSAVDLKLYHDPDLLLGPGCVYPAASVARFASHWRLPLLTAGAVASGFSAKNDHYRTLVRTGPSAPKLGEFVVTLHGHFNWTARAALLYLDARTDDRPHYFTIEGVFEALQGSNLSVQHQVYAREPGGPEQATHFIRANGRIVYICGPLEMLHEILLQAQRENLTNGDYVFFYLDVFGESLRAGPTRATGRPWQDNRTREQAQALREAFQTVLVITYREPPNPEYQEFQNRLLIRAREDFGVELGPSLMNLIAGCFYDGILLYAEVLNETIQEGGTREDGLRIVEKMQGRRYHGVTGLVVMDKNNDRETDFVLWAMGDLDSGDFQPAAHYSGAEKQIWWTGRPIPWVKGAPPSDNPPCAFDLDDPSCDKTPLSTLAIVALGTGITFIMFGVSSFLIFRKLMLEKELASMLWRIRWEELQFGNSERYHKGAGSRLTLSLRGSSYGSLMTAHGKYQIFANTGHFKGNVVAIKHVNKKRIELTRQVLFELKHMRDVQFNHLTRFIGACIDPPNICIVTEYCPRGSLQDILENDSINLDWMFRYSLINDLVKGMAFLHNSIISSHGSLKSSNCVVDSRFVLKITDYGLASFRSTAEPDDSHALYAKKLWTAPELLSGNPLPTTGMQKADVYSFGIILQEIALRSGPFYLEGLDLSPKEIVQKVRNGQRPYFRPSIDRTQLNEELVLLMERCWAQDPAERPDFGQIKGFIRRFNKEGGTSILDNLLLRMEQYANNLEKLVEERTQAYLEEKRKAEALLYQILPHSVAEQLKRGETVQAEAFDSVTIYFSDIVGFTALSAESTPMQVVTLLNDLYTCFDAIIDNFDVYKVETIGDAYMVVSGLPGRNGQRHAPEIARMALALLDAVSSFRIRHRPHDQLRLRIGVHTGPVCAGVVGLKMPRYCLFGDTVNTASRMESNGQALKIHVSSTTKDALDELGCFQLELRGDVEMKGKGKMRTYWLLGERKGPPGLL
# [1] = test system: rat closed femur fracture model; experiment: Rat closed femur fracture model, callus diameter; assay type: in vivo; details: 0.5 mg/kg/day continuous s.c. for one week; 7 days after fracture; versus vehicle group; FIG. 5B
# Description: (§1) In accordance with the method of Example 2, a rat closed fracture model was prepared. An administration solution was prepared so as to be a dosage corresponding to 0.5 mg/kg/day by using various NPR-B agonists (CNP derivative A, hCNP-53 (SEQ ID NO: 2), CNP derivative C (CNP-36, amino acid Nos. 18 to 53 of SEQ ID NO: 2), and CNP derivative D (Pro-Gly-CNP37, SEQ ID NO: 15)), and then loaded into an osmotic pump (Model 2001, Alzet). The osmotic pump was buried under the skin of the neck back of the animal retained in a supine position, and continuous subcutaneous administration was performed for one week. Vehicle was administered to the control group. 7 days after the preparation of the bone fracture, the animal was subjected to isoflurane inhalation anesthesia, retained in a supine position to open the abdomen, and then subjected to blood collection from the abdominal aorta. EDTA Na was added to the blood, then the EDTA Na-added blood was centrifuged and the plasma separated, and the resultant was cryopreserved. At a later date, the cGMP level in the plasma was measured by a RIA method using a kit (YSI-7702, YAMASA CORPORATION). After blood collection, the animal was bled for the euthanasia, and then the left femur was resected. Each maximum diameter of the sagittal plane and the coronal plane in the callus was measured, and the average value was used as a callus diameter. In accordance with the method of Example 3, the type X collagen gene expression level in the callus was measured. The measurement was performed for 12 cases in each group.
# type X collagen gene = experiment: Rat closed femur fracture model, cartilage-related marker gene expression (real-time PCR); assay type: in vivo; details: Example 4: 0.5 mg/kg/day continuous s.c. for one week; 7 days after fracture; versus vehicle group; FIG. 5C
# Description: In accordance with the method of Example 2, a rat closed fracture model was prepared. For an animal in a Sham group, a pin only was inserted into the femur, and a bone fracture was not prepared. An administration solution of CNP derivative A was prepared so as to be a dosage corresponding to 0.5 mg/kg/day, and then loaded into an osmotic pump (model 2001, Alzet). The osmotic pump was buried under the skin of the neck back of the animal, and continuous subcutaneous administration was performed for one week. Vehicle was continuously subcutaneously administered to the control group. 7 days after the preparation of the bone fracture, the animal was subjected to isoflurane inhalation anesthesia, retained in a supine position to open the abdomen, and then bled for the euthanasia. The left femur was resected, and immersed into RNAlater (Life Technologies Corporation). The diaphysis or part of the callus was cut out from the femur that had been refrigerated in RNAlater for one day or more. To the cut-out diaphysis or part of the callus, QIAzol (QIAGEN) was added, and the resultant was crushed with tungsten beads. The total RNA was extracted by an RNeasy Mini Kit (QIAGEN), and 1st strand cDNA was synthesized by a SuperScript VILO cDNA Synthesis Kit (Life Technologies Corporation). The gene expression level was measured by a real-time PCR method using TaqMan Gene Expression Master Mix (Life Technologies Corporation). The measured value was standardized by the gene expression level of ubiquitin-C. The standardization was performed for 12 cases in each group.
# as §1
Substance,NPR-B agonist activity compared with hCNP-22 (in words) (NPR-B),Maximum diameter of the callus generated in the left femur [1],Gene expression level of type X collagen in the callus (type X collagen gene)
"CNP6-22: peptide consisting of only the ring structure, amino acid Nos. 6 to 22 of SEQ ID NO: 1 (CFGLKLDRIGSMSGLGC; disulfide 1-17 (inferred))",almost the same NPR-B agonist activity as that of hCNP-22,,
"hCNP-53: human-derived CNP-53, DLRVDTKSRAAWARLLQEHPNARKYKGANKKGLSKGCFGLKLDRIGSMSGLGC: SEQ ID NO: 2 (DLRVDTKSRAAWARLLQEHPNARKYKGANKKGLSKGCFGLKLDRIGSMSGLGC; mammalian) [reference compound]",,significantly larger,suppressed
"CNP derivative C: hCNP-36, 17 consecutive amino acids from the N terminus of hCNP-53 deleted; amino acid Nos. 18 to 53 of SEQ ID NO: 2 (EHPNARKYKGANKKGLSKGCFGLKLDRIGSMSGLGC; mammalian)",,significantly larger,significantly suppressed
"CNP derivative D: Pro-Gly-CNP37, SEQ ID NO: 15; derivative described in WO 2009/067639 (PGQEHPNARKYKGANKKGLSKGCFGLKLDRIGSMSGLGC; CNP derivative D, which disclosed in Am. J. Hum. Gent.(2012), 91(6), 1108-1114)",,significantly larger,significantly suppressed
